Experimental data from ChEMBL document CHEMBL4130462, “Natural isoflavone biochanin A as a template for the design of new and potent 3-phenylquinolone efflux inhibitors against Mycobacterium avium” (Eur J Med Chem, 2017).
In brackets after ≈: the same amount, converted by molar mass.

Tests used:
Mycobacterium avium [1] = conditions: isolate MAV3
[2] = test system: Mycobacterium avium subsp. avium ATCC 25291
Mycobacterium avium [3] = conditions: isolate MAV3; remark: listed apart in the source
Mycobacterium avium [4] = conditions: isolate MAV1
Description: Inhibition of multidrug resistance efflux pump in Mycobacterium avium isolate MAV1 assessed as potentiation of ciprofloxacin-induced antibacterial activity by measuring ciprofloxacin MIC at 1/4 MIC incubated for 3 days by MTT assay

Mycobacterium avium [5] = conditions: 104 mc'2 4
Mycobacterium avium [6] = conditions: isolate MAV2
Description: Inhibition of multidrug resistance efflux pump in Mycobacterium avium isolate MAV2 assessed as potentiation of ofloxacin-induced antibacterial activity by measuring ofloxacin MIC at 1/4 MIC incubated for 3 days by MTT assay

Mycobacterium avium [7] = conditions: 104 mc'2 4; remark: listed apart in the source
[8] = test system: Mycobacterium avium subsp. avium ATCC 25291; remark: listed apart in the source
Description: Inhibition of multidrug resistance efflux pump in Mycobacterium avium ATCC 25291 assessed as potentiation of clarithromycin -induced antibacterial activity by measuring clarithromycin MIC at 1/4 MIC incubated for 3 days by MTT assay

Mycobacterium avium [9] = conditions: isolate MAV3; remark: listed apart in the source
Mycobacterium avium [10] = conditions: in vivo, 72 h
Description: Antimycobacterial activity against Mycobacterium avium 104 mc'2 4 assessed as reduction in bacterial viability incubated for 3 days by MTT assay

Mycobacterium avium [11] = conditions: 104
Mycobacterium avium [12] = conditions: isolate MAV3; remark: listed apart in the source
Mycobacterium avium [13] = conditions: 104; remark: listed apart in the source
[14] = test system: Mycobacterium avium subsp. avium ATCC 25291; remark: listed apart in the source
Description: Inhibition of multidrug resistance efflux pump in Mycobacterium avium ATCC 25291 assessed as potentiation of ethidium bromide-induced antibacterial activity by measuring ethidium bromide MIC at 1/4 MIC incubated for 3 days by MTT assay

Mycobacterium avium [15] = conditions: isolate MAV3; remark: listed apart in the source
Mycobacterium avium [16] = conditions: 104 mc'2 3
Mycobacterium avium [17] = conditions: 104 mc'2 3; remark: listed apart in the source
Mycobacterium avium [18] = conditions: isolate MAV4
Description: Inhibition of multidrug resistance efflux pump in Mycobacterium avium isolate MAV4 assessed as potentiation of clarithromycin -induced antibacterial activity by measuring clarithromycin MIC at 1/2 MIC incubated for 3 days by MTT assay

Mycobacterium avium [19] = conditions: 104; remark: listed apart in the source
Mycobacterium avium [20] = conditions: isolate MAV2; remark: listed apart in the source
Mycobacterium avium [21] = conditions: isolate MAV4; remark: listed apart in the source
Mycobacterium avium [22] = conditions: isolate MAV4; remark: listed apart in the source
Mycobacterium avium [23] = assay: Antimycobacterial activity against Mycobacterium avium isolate MAV3 assessed as reduction in bacterial viability incubated for 3 days by MTT assay; type: organism-based; conditions: 72 h
Mycobacterium avium [24] = conditions: 104 mc'2 4; remark: listed apart in the source
Mycobacterium avium [25] = conditions: 104; remark: listed apart in the source
Mycobacterium avium [26] = conditions: isolate MAV4; remark: listed apart in the source
Description: Inhibition of multidrug resistance efflux pump in Mycobacterium avium isolate MAV4 assessed as potentiation of ethidium bromide-induced antibacterial activity by measuring ethidium bromide MIC at 1/4 MIC incubated for 3 days by MTT assay

Mycobacterium avium [27] = conditions: isolate MAV3; remark: listed apart in the source
Mycobacterium avium [28] = conditions: 104 mc'2 3; remark: listed apart in the source
[29] = Cytotoxicity in human monocyte-derived macrophages assessed as reduction in cell viability incubated for 3 days by alamar blue dye based assay; design: species or system Macrophage cell line
Mycobacterium avium [30] = conditions: isolate MAV2; remark: listed apart in the source
Description: Inhibition of multidrug resistance efflux pump in Mycobacterium avium isolate MAV2 assessed as potentiation of ofloxacin-induced antibacterial activity by measuring ofloxacin MIC at 1/2 MIC incubated for 3 days by MTT assay

Mycobacterium avium [31] = assay: Antimycobacterial activity against Mycobacterium avium isolate MAV2 assessed as reduction in bacterial viability incubated for 3 days by MTT assay; type: organism-based; conditions: 72 h
Mycobacterium avium [32] = conditions: isolate MAV4; remark: listed apart in the source
Description: Inhibition of multidrug resistance efflux pump in Mycobacterium avium isolate MAV4 assessed as potentiation of clarithromycin -induced antibacterial activity by measuring clarithromycin MIC at 1/4 MIC incubated for 3 days by MTT assay

Mycobacterium avium [33] = conditions: isolate MAV2; remark: listed apart in the source
Mycobacterium avium [34] = conditions: 104; remark: listed apart in the source
[35] = test system: Mycobacterium avium subsp. avium ATCC 25291; remark: listed apart in the source
Mycobacterium avium [36] = conditions: isolate MAV1; remark: listed apart in the source
Description: Inhibition of multidrug resistance efflux pump in Mycobacterium avium isolate MAV1 assessed as potentiation of ciprofloxacin-induced antibacterial activity by measuring ciprofloxacin MIC at 1/2 MIC incubated for 3 days by MTT assay (Rvb = 2 ug/ml)

[37] = test system: Mycobacterium avium subsp. avium ATCC 25291; remark: listed apart in the source
Mycobacterium avium [38] = conditions: 104 mc'2 4; remark: listed apart in the source
Mycobacterium avium [39] = conditions: 104 mc'2 4; remark: listed apart in the source
Mycobacterium avium [40] = conditions: isolate MAV4; remark: listed apart in the source
Mycobacterium avium [41] = assay: Antimycobacterial activity against Mycobacterium avium isolate MAV4 assessed as reduction in bacterial viability incubated for 3 days by MTT assay; type: organism-based; conditions: 72 h
Mycobacterium avium [42] = conditions: isolate MAV1; remark: listed apart in the source
Mycobacterium avium [43] = conditions: isolate MAV3; remark: listed apart in the source
Mycobacterium avium [44] = assay: Antimycobacterial activity against Mycobacterium avium ATCC 25291 assessed as reduction in bacterial viability incubated for 3 days by MTT assay; type: organism-based; conditions: mycobacterium avium subsp. avium atcc 25291, 72 h
Mycobacterium avium [45] = conditions: 104 mc'2 4; remark: listed apart in the source
Mycobacterium avium [46] = conditions: isolate MAV2; remark: listed apart in the source
Mycobacterium avium [47] = conditions: 104 mc'2 3; remark: listed apart in the source
Mycobacterium avium [48] = conditions: 104; remark: listed apart in the source
Description: Inhibition of multidrug resistance efflux pump in Mycobacterium avium 104 assessed as potentiation of clarithromycin -induced antibacterial activity by measuring clarithromycin MIC at 1/4 MIC incubated for 3 days by MTT assay

Mycobacterium avium [49] = conditions: isolate MAV2; remark: listed apart in the source
Mycobacterium avium [50] = conditions: isolate MAV2; remark: listed apart in the source
Mycobacterium avium [51] = conditions: isolate MAV2; remark: listed apart in the source
Description: Inhibition of multidrug resistance efflux pump in Mycobacterium avium isolate MAV2 assessed as potentiation of clarithromycin -induced antibacterial activity by measuring clarithromycin MIC at 1/2 MIC incubated for 3 days by MTT assay (Rvb = >1024 ug/ml)

Mycobacterium avium [52] = conditions: isolate MAV1; remark: listed apart in the source
Mycobacterium avium [53] = conditions: 104 mc'2 4; remark: listed apart in the source
Mycobacterium avium [54] = conditions: 104; remark: listed apart in the source
Mycobacterium avium [55] = conditions: isolate MAV3; remark: listed apart in the source
[56] = test system: Mycobacterium avium subsp. avium ATCC 25291; remark: listed apart in the source
Description: Inhibition of multidrug resistance efflux pump in Mycobacterium avium ATCC 25291 assessed as potentiation of clarithromycin -induced antibacterial activity by measuring clarithromycin MIC at 1/2 MIC incubated for 3 days by MTT assay

Mycobacterium avium [57] = conditions: 72 h
Description: Antimycobacterial activity against Mycobacterium avium 104 assessed as reduction in bacterial viability incubated for 3 days by MTT assay

Mycobacterium avium [58] = conditions: 104; remark: listed apart in the source
Mycobacterium avium [59] = conditions: isolate MAV3; remark: listed apart in the source
Mycobacterium avium [60] = conditions: 104 mc'2 3; remark: listed apart in the source
Mycobacterium avium [61] = assay: Antimycobacterial activity against Mycobacterium avium isolate MAV1 assessed as reduction in bacterial viability incubated for 3 days by MTT assay; type: organism-based; conditions: in vitro, 72 h
Mycobacterium avium [62] = conditions: 104 mc'2 3; remark: listed apart in the source
Mycobacterium avium [63] = conditions: isolate MAV4; remark: listed apart in the source

`CN(C)CCCN1c2ccccc2Sc2ccc(Cl)cc21` [CHLORPROMAZINE] showed an MIC (Mycobacterium avium [1]) of 3.12 µg/mL (≈ 9.8 µM), an MIC [2] of less than 0.5 µg/mL and an MIC (Mycobacterium avium [3]) of 8 µg/mL (≈ 25.1 µM). The MIC (Mycobacterium avium [4]) was 1 µg/mL (≈ 3.14 µM), the MIC (Mycobacterium avium [5]) was 512 µg/mL (≈ 1610 µM) and the MIC (Mycobacterium avium [6]) was 2 µg/mL (≈ 6.27 µM). It also gave an MIC (Mycobacterium avium [7]) greater than 512 µg/mL, an MIC [8] of 1 µg/mL (≈ 3.14 µM) and an MIC (Mycobacterium avium [9]) of 0.5 µg/mL (≈ 1.57 µM). The MIC (Mycobacterium avium [10]) was 30 µg/mL (≈ 94.1 µM), the MIC (Mycobacterium avium [11]) was 0.5 µg/mL (≈ 1.57 µM) and the MIC (Mycobacterium avium [12]) was 128 µg/mL (≈ 401 µM). It also gave an MIC (Mycobacterium avium [13]) of 64 µg/mL (≈ 201 µM), an MIC [14] of 12.5 µg/mL (≈ 39.2 µM) and an MIC (Mycobacterium avium [15]) of 64 µg/mL (≈ 201 µM). For the same molecule, the MIC (Mycobacterium avium [16]) was 6.25 µg/mL (≈ 19.6 µM), the MIC (Mycobacterium avium [17]) was 1 µg/mL (≈ 3.14 µM) and the MIC (Mycobacterium avium [18]) was 0.5 µg/mL (≈ 1.57 µM). For the same molecule, the MIC (Mycobacterium avium [19]) was 3.12 µg/mL (≈ 9.8 µM), the MIC (Mycobacterium avium [20]) was 2 µg/mL (≈ 6.27 µM) and the MIC (Mycobacterium avium [21]) was 16 µg/mL (≈ 50.2 µM). For the same molecule, the MIC (Mycobacterium avium [22]) was 2 µg/mL (≈ 6.27 µM), the MIC (Mycobacterium avium [23]) was 30 µg/mL (≈ 94.1 µM) and the MIC (Mycobacterium avium [24]) was 64 µg/mL (≈ 201 µM). The MIC (Mycobacterium avium [25]) was 64 µg/mL (≈ 201 µM), the MIC (Mycobacterium avium [26]) was 12.5 µg/mL (≈ 39.2 µM) and the MIC (Mycobacterium avium [27]) was 8 µg/mL (≈ 25.1 µM). For the same molecule, the MIC (Mycobacterium avium [28]) was less than 4 µg/mL, the CC50 at 72 h ([29]; human monocyte-derived macrophages) was 22.2 µM and the MTC ([29]; macrophage cell line, 72 h) was 1.25 µM. It also gave an MIC (Mycobacterium avium [30]) of 1 µg/mL (≈ 3.14 µM), an MIC (Mycobacterium avium [31]) of 30 µg/mL (≈ 94.1 µM) and an MIC (Mycobacterium avium [32]) of 2 µg/mL (≈ 6.27 µM). The MIC (Mycobacterium avium [33]) was greater than 512 µg/mL, the MIC (Mycobacterium avium [34]) was 2 µg/mL (≈ 6.27 µM) and the MIC [35] was 8 µg/mL (≈ 25.1 µM). The MIC (Mycobacterium avium [36]) was less than 0.031 µg/mL, the MIC [37] was less than 0.25 µg/mL and the MIC (Mycobacterium avium [38]) was 4 µg/mL (≈ 12.5 µM). It also gave an MIC (Mycobacterium avium [39]) of 8 µg/mL (≈ 25.1 µM), an MIC (Mycobacterium avium [40]) of 4 µg/mL (≈ 12.5 µM) and an MIC (Mycobacterium avium [41]) of 30 µg/mL (≈ 94.1 µM). It also gave an MIC (Mycobacterium avium [42]) of less than 4 µg/mL, an MIC (Mycobacterium avium [43]) of 8 µg/mL (≈ 25.1 µM) and an MIC (Mycobacterium avium [44]) of 30 µg/mL (≈ 94.1 µM). The MIC (Mycobacterium avium [45]) was 0.39 µg/mL (≈ 1.22 µM), the MIC (Mycobacterium avium [46]) was 4 µg/mL (≈ 12.5 µM) and the MIC (Mycobacterium avium [47]) was less than 4 µg/mL. The MIC (Mycobacterium avium [48]) was 4 µg/mL (≈ 12.5 µM), the MIC (Mycobacterium avium [49]) was greater than 512 µg/mL and the MIC (Mycobacterium avium [50]) was greater than 512 µg/mL. The MIC (Mycobacterium avium [51]) was greater than 512 µg/mL, the MIC (Mycobacterium avium [52]) was less than 0.195 µg/mL and the MIC (Mycobacterium avium [53]) was greater than 512 µg/mL. For the same molecule, the MIC (Mycobacterium avium [54]) was less than 4 µg/mL, the MIC (Mycobacterium avium [55]) was 4 µg/mL (≈ 12.5 µM) and the MIC [56] was less than 0.125 µg/mL. It also gave an MIC (Mycobacterium avium [57]) of 30 µg/mL (≈ 94.1 µM), an MIC (Mycobacterium avium [58]) of 6.25 µg/mL (≈ 19.6 µM) and an MIC (Mycobacterium avium [59]) of 4 µg/mL (≈ 12.5 µM). The MIC (Mycobacterium avium [60]) was 1 µg/mL (≈ 3.14 µM), the MIC (Mycobacterium avium [61]) was 30 µg/mL (≈ 94.1 µM) and the MIC (Mycobacterium avium [62]) was greater than 512 µg/mL. It also gave an MIC (Mycobacterium avium [63]) of 128 µg/mL (≈ 401 µM).
